Data published in ChEMBL document CHEMBL3232845 (Bioorg Med Chem Lett, 2014).

Experiments:
[1] = target: Tyrosine-protein kinase Yes (Homo sapiens) (UniProt P07947); test: Inhibition of human Yes assessed as enzyme activity at 1 uM relative to control; parameters: scale not given: the % may be the effect or the level left
[2] = target: Serine/threonine-protein kinase Nek11 (Homo sapiens) (UniProt Q8NG66); test: Inhibition of human NEK11 assessed as enzyme activity at 1 uM relative to control; parameters: scale not given: the % may be the effect or the level left
[3] = target: CDK9/cyclin T1 (Homo sapiens) (UniProt O60563+P50750); test: Inhibition of human CDK9/cyclinT1 assessed as enzyme activity at 1 uM relative to control; assay type: protein-complex assay; parameters: scale not given: the % may be the effect or the level left
[4] = target: CDK7/Cyclin H/MNAT1 (Homo sapiens) (UniProt P51946+P50613+P51948); test: Inhibition of human CDK7/cyclinH/MAT1 assessed as enzyme activity at 1 uM relative to control; assay type: protein-complex assay; parameters: scale not given: the % may be the effect or the level left
[5] = target: Eukaryotic elongation factor 2 kinase (Homo sapiens) (UniProt O00418); test: Inhibition of human eEF-2K assessed as enzyme activity at 1 uM relative to control; parameters: scale not given: the % may be the effect or the level left
[6] = target: Myotonin-protein kinase (Homo sapiens) (UniProt Q09013); test: Inhibition of human DMPK assessed as enzyme activity at 1 uM relative to control; parameters: scale not given: the % may be the effect or the level left
Chain of Myotonin-protein kinase (Homo sapiens) (Q09013 whole entry): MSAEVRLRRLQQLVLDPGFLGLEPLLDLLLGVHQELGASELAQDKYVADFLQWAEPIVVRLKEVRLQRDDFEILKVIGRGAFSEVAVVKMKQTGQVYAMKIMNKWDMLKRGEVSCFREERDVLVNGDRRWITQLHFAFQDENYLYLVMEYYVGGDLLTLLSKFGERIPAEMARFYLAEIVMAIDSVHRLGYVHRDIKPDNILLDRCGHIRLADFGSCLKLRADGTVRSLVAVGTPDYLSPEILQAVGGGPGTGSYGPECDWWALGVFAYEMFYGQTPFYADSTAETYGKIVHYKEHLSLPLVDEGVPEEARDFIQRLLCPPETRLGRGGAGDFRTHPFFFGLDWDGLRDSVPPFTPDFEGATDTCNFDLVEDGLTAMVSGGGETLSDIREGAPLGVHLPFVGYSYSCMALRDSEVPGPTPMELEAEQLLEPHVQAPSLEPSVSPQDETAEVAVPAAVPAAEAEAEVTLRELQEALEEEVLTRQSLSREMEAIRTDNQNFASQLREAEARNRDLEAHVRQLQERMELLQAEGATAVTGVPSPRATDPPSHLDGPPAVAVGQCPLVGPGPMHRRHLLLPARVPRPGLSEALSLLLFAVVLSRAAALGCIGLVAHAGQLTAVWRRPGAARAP

[7] = target: Ribosomal protein S6 kinase alpha-4 (Homo sapiens) (UniProt O75676); test: Inhibition of human MSK2 assessed as enzyme activity at 1 uM relative to control; parameters: scale not given: the % may be the effect or the level left
Chain of Ribosomal protein S6 kinase alpha-4 (Homo sapiens) (O75676 whole entry, looked up): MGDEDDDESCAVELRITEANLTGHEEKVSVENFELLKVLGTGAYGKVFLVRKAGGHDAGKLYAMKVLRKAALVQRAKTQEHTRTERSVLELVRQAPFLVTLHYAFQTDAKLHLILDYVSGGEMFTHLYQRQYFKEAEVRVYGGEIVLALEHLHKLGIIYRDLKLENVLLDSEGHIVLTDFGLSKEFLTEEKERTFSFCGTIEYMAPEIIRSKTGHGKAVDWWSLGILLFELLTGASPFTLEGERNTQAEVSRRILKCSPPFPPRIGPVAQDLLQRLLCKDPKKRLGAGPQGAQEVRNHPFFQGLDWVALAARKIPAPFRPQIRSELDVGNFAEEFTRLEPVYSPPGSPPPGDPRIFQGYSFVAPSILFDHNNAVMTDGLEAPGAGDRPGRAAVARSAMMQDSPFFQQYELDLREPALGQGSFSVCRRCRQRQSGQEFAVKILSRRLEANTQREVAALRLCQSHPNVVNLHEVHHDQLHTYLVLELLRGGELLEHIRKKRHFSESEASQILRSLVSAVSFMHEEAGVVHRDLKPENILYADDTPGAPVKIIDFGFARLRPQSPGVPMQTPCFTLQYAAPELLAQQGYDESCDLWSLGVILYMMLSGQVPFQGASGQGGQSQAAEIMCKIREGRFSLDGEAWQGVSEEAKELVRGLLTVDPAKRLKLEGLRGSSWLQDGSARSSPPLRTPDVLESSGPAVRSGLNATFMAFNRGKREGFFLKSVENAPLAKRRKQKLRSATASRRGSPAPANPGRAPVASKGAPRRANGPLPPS

[8] = target: Receptor-type tyrosine-protein kinase FLT3 (Homo sapiens) (UniProt P36888); test: Inhibition of human Flt3 assessed as enzyme activity at 1 uM relative to control; parameters: scale not given: the % may be the effect or the level left
[9] = target: Serine/threonine-protein kinase 3 (Homo sapiens) (UniProt Q13188); test: Inhibition of human MST2 assessed as enzyme activity at 1 uM relative to control; parameters: scale not given: the % may be the effect or the level left
[10] = target: Homeodomain-interacting protein kinase 2 (Homo sapiens) (UniProt Q9H2X6); test: Inhibition of human HIPK2 assessed as enzyme activity at 1 uM relative to control; parameters: scale not given: the % may be the effect or the level left
[11] = target: Tyrosine-protein kinase HCK (Homo sapiens) (UniProt P08631); test: Inhibition of human Hck assessed as enzyme activity at 1 uM relative to control; parameters: scale not given: the % may be the effect or the level left
Chain of Tyrosine-protein kinase HCK (Homo sapiens) (P08631 2-526 limits assumed): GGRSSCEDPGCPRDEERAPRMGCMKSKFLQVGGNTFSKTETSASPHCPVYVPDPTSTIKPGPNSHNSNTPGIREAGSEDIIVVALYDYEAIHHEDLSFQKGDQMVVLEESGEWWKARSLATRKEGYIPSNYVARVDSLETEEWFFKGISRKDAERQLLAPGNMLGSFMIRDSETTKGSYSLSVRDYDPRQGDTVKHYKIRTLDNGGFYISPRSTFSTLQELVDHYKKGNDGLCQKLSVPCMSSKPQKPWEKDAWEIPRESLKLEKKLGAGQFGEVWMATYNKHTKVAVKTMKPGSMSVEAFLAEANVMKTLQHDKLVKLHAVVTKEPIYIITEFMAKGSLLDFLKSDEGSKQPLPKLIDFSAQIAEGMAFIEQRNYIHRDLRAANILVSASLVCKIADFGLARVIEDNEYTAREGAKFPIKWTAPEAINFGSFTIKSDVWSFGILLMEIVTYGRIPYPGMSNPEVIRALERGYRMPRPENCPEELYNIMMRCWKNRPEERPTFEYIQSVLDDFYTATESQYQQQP

[12] = target: Serine/threonine-protein kinase PAK 5 (Homo sapiens) (UniProt Q9P286); test: Inhibition of human PAK5 assessed as enzyme activity at 1 uM relative to control; parameters: scale not given: the % may be the effect or the level left
[13] = target: Serine/threonine-protein kinase 17A (Homo sapiens) (UniProt Q9UEE5); test: Inhibition of human DRAK1 assessed as enzyme activity at 1 uM relative to control; parameters: scale not given: the % may be the effect or the level left
[14] = target: Serine/threonine-protein kinase TAO2 (Homo sapiens) (UniProt Q9UL54); test: Inhibition of human TAO2 assessed as enzyme activity at 1 uM relative to control; parameters: scale not given: the % may be the effect or the level left
[15] = target: Dual specificity mitogen-activated protein kinase kinase 6 (Homo sapiens) (UniProt P52564); test: Inhibition of human MKK6 assessed as enzyme activity at 1 uM relative to control; parameters: scale not given: the % may be the effect or the level left
[16] = target: Ephrin type-B receptor 2 (Homo sapiens) (UniProt P29323); test: Inhibition of human EphB2 assessed as enzyme activity at 1 uM relative to control; parameters: scale not given: the % may be the effect or the level left
[17] = target: Serine/threonine-protein kinase MARK1 (Homo sapiens) (UniProt Q9P0L2); test: Inhibition of human MARK1 assessed as enzyme activity at 1 uM relative to control; parameters: scale not given: the % may be the effect or the level left
[18] = target: CDK3/Cyclin E (Homo sapiens) (UniProt P24864+Q00526); test: Inhibition of human CDK3/cyclinE assessed as enzyme activity at 1 uM relative to control; assay type: protein-complex assay; parameters: scale not given: the % may be the effect or the level left
[19] = target: Insulin receptor-related protein (Homo sapiens) (UniProt P14616); test: Inhibition of human IRR assessed as enzyme activity at 1 uM relative to control; parameters: scale not given: the % may be the effect or the level left
[20] = target: Dual specificity tyrosine-phosphorylation-regulated kinase 2 (Homo sapiens) (UniProt Q92630); test: Inhibition of human DYRK2 assessed as enzyme activity at 1 uM relative to control; parameters: scale not given: the % may be the effect or the level left
[21] = target: Homeodomain-interacting protein kinase 1 (Homo sapiens) (UniProt Q86Z02); test: Inhibition of human HIPK1 assessed as enzyme activity at 1 uM relative to control; parameters: scale not given: the % may be the effect or the level left
[22] = target: Serine/threonine-protein kinase PLK1 (Homo sapiens) (UniProt P53350); test: Inhibition of human Plk1 assessed as enzyme activity at 1 uM relative to control; parameters: scale not given: the % may be the effect or the level left
[23] = target: cGMP-dependent protein kinase 1 (Homo sapiens) (UniProt Q13976); test: Inhibition of human PRKG1alpha assessed as enzyme activity at 1 uM relative to control; parameters: scale not given: the % may be the effect or the level left
Chain of cGMP-dependent protein kinase 1 (Homo sapiens) (Q13976 whole entry): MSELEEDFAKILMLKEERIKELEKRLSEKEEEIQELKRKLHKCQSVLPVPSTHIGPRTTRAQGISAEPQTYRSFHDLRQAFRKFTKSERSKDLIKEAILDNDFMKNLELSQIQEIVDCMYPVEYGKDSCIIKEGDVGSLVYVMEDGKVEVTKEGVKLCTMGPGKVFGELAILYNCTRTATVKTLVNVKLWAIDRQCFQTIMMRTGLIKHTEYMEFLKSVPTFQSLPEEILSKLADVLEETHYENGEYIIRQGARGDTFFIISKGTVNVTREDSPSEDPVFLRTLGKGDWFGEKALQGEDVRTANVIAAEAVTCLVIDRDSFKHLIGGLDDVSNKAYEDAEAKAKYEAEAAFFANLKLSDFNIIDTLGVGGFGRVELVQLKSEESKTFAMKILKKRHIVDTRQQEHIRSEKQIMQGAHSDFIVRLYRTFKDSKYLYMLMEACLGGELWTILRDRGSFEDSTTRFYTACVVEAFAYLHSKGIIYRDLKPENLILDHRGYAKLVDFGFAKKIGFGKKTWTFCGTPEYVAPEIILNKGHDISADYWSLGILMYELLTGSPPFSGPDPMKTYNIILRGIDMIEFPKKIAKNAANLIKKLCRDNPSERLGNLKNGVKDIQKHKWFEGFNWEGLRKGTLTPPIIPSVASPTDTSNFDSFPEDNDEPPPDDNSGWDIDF

[24] = target: T1, Serine/threonine-protein kinase B-raf (Homo sapiens, UniProt P15056, V600E); test: Inhibition of full-length B-Raf V600E mutant (unknown origin)
T1 sequence (P15056 2-766 V600E limits assumed): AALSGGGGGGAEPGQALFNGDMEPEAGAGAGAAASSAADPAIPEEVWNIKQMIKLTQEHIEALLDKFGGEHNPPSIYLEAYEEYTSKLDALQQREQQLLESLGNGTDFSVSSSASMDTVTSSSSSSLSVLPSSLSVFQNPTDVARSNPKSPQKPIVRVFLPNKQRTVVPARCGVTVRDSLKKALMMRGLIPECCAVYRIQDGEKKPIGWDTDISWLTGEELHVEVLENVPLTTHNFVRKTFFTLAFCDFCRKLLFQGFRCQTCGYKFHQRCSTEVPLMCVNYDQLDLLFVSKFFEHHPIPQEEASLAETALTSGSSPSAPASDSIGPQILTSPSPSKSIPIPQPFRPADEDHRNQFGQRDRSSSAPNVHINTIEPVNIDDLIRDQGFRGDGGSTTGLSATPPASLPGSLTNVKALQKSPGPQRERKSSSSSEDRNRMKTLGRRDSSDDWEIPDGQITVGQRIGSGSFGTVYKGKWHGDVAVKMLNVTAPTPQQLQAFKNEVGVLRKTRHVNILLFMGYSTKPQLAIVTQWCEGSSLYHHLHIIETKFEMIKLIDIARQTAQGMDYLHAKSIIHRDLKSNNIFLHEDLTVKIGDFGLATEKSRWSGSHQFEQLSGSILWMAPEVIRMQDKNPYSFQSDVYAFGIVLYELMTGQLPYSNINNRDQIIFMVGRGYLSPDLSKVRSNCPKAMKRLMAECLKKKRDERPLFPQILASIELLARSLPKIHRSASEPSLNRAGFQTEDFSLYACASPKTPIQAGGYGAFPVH

[25] = target: Protein kinase C gamma type (Homo sapiens) (UniProt P05129); test: Inhibition of human PKCgamma assessed as enzyme activity at 1 uM relative to control; parameters: scale not given: the % may be the effect or the level left
[26] = target: Calcium/calmodulin-dependent protein kinase type II subunit beta (Homo sapiens) (UniProt Q13554); test: Inhibition of human CAMK2b assessed as enzyme activity at 1 uM relative to control; parameters: scale not given: the % may be the effect or the level left
Chain of Calcium/calmodulin-dependent protein kinase type II subunit beta (Homo sapiens) (Q13554 whole entry): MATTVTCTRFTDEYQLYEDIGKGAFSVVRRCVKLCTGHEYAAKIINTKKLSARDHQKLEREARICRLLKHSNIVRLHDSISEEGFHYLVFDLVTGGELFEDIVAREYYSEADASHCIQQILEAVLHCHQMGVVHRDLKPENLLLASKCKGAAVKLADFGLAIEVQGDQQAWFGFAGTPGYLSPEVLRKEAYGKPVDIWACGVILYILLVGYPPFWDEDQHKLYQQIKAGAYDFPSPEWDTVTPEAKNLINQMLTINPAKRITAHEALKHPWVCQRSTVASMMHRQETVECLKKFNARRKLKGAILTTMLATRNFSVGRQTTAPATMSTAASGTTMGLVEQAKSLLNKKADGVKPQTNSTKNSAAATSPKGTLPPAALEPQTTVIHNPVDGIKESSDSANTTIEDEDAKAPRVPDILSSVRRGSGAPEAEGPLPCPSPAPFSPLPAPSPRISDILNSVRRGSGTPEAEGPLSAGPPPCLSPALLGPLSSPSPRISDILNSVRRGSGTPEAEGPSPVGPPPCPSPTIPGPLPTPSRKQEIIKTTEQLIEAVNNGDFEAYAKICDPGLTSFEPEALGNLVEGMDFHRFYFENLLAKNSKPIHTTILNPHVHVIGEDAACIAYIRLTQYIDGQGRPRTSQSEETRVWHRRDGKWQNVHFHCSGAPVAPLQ

[27] = target: T1, Serine/threonine-protein kinase B-raf; test: Inhibition of B-Raf V600E mutant in human Malme-3M cells assessed as basal ERK phosphorylation; assay type: cell-based
[28] = target: MAP kinase-activated protein kinase 3 (Homo sapiens) (UniProt Q16644); test: Inhibition of human MAPKAP-K3 assessed as enzyme activity at 1 uM relative to control; parameters: scale not given: the % may be the effect or the level left
Chain of MAP kinase-activated protein kinase 3 (Homo sapiens) (Q16644 whole entry, looked up): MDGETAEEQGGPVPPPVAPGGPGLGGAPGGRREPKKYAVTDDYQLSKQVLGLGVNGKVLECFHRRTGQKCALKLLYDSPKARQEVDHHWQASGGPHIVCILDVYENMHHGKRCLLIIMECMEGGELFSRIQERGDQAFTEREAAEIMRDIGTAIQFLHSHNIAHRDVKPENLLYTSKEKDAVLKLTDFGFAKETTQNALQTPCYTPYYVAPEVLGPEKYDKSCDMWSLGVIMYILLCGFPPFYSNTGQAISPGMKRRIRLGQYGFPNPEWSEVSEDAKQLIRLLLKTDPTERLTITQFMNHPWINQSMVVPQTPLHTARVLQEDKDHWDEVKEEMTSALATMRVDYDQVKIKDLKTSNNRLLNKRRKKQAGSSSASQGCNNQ

[29] = target: cGMP-dependent protein kinase 1 (Homo sapiens) (UniProt Q13976); test: Inhibition of human PRKG1beta assessed as enzyme activity at 1 uM relative to control; parameters: scale not given: the % may be the effect or the level left
[30] = target: Serine/threonine-protein kinase pim-1 (Homo sapiens) (UniProt P11309); test: Inhibition of human Pim-1 assessed as enzyme activity at 1 uM relative to control; parameters: scale not given: the % may be the effect or the level left
[31] = target: Serine/threonine-protein kinase ULK2 (Homo sapiens) (UniProt Q8IYT8); test: Inhibition of human ULK2 assessed as enzyme activity at 1 uM relative to control; parameters: scale not given: the % may be the effect or the level left
[32] = target: Death-associated protein kinase 3 (Homo sapiens) (UniProt O43293); test: Inhibition of human DAPK3 assessed as enzyme activity at 1 uM relative to control; parameters: scale not given: the % may be the effect or the level left
[33] = target: Ephrin type-B receptor 3 (Homo sapiens) (UniProt P54753); test: Inhibition of human EphB3 assessed as enzyme activity at 1 uM relative to control; parameters: scale not given: the % may be the effect or the level left
[34] = target: cAMP-dependent protein kinase catalytic subunit alpha (Homo sapiens) (UniProt P17612); test: Inhibition of human PKAC-alpha assessed as enzyme activity at 1 uM relative to control; parameters: scale not given: the % may be the effect or the level left
[35] = target: Tyrosine-protein kinase BTK (Homo sapiens) (UniProt Q06187); test: Inhibition of human BTK assessed as enzyme activity at 1 uM relative to control; parameters: scale not given: the % may be the effect or the level left
[36] = target: Tyrosine-protein kinase JAK2 (Homo sapiens) (UniProt O60674); test: Inhibition of human JAK2 assessed as enzyme activity at 1 uM relative to control; parameters: scale not given: the % may be the effect or the level left
[37] = target: Proto-oncogene tyrosine-protein kinase Src (Homo sapiens) (UniProt P12931); test: Inhibition of human Src assessed as enzyme activity at 1 uM relative to control; parameters: scale not given: the % may be the effect or the level left
Chain of Proto-oncogene tyrosine-protein kinase Src (Homo sapiens) (P12931 2-536 limits assumed): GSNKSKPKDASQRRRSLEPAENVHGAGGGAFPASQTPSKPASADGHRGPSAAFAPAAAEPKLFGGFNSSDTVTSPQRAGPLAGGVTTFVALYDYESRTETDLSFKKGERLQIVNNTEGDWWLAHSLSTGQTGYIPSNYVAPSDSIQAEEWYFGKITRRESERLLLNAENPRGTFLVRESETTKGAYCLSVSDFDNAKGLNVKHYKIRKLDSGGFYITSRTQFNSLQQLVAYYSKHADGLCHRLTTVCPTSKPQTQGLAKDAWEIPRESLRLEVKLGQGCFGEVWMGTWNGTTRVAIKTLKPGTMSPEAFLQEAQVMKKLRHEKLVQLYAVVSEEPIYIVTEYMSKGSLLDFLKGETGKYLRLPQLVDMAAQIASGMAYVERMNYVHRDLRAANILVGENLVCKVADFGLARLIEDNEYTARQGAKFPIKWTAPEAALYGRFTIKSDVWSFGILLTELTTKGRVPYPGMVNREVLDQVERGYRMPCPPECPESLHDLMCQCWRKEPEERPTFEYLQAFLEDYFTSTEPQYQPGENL

[38] = target: CDK6/cyclin D3 (Homo sapiens) (UniProt P30281+Q00534); test: Inhibition of human CDK6/cyclinD3 assessed as enzyme activity at 1 uM relative to control; assay type: protein-complex assay; parameters: scale not given: the % may be the effect or the level left

## CCCS(=O)(=O)Nc1cccc(Nc2ccc3ncn(C)c(=O)c3c2)c1C#N
[1]
  Activity: 103%
[2]
  Activity: 93.5%
[3]
  Activity: 104%
[4]
  Activity: 104%
[5]
  Activity: 128%
[6]
  Activity: 93%
[7]
  Activity: 111%
[8]
  Activity: 102%
[9]
  Activity: 99.5%
[10]
  Activity: 100%
[11]
  Activity: 94.5%
[12]
  Activity: 99.5%
[13]
  Activity: 120%
[14]
  Activity: 97%
[15]
  Activity: 118%
[16]
  Activity: 94.5%
[17]
  Activity: 117%
[18]
  Activity: 106%
[19]
  Activity: 101%
[20]
  Activity: 99%
[21]
  Activity: 114%
[22]
  Activity: 90.5%
[23]
  Activity: 112%
[24]
  IC50: 0.3 nM
[25]
  Activity: 101%
[26]
  Activity: 107%
[27]
  IC50: 6 nM
[28]
  Activity: 121%
[29]
  Activity: 106%
[30]
  Activity: 147%
[31]
  Activity: 99.5%
[32]
  Activity: 110%
[33]
  Activity: 91.5%
[34]
  Activity: 110%
[35]
  Activity: 102%
[36]
  Activity: 110%
[37]
  Activity: 83.5%
[38]
  Activity: 104%
